For one experiment, the system named is Cebus apella. Briefly: Drug efficacy evaluation test for Cebus apella (uric acid excretion rate). The experiment is classed as in vivo. As to conditions: 3 mg/kg to 30 mg/kg in 0.5% methylcellulose, administered from the nasal cavity to the stomach, samples up to 24 hours. Here is the method:
Drug Efficacy Evaluation Test for Cebus Apella 2-(5-chloropyridin-3-yl)-1-(2,5-dichlorobenzyl)-4-methyl-1H-imidazole-5-carboxylic acid (3 mg/kg to 30 mg/kg) dispersed in a 0.5% methylcellulose solution was administered to Cebus apella from the nasal cavity to the stomach using a disposable catheter and a syringe barrel. Blood samples were taken before administration and 30 minutes, 1 hour, 2 hours, 4 hours, 8 hours, 12 hours, and 24 hours after administration; and urine samples were collected for the time intervals of immediately after to 4 hours after administration, from 4 hours to 8 hours after administration, from 8 hours to 16 hours after administration, and from 16 hours to 24 hours after administration. Concentrations of uric acid and creatinine in the blood and urine samples collected were measured by an automatic analyzer (JEOL Ltd.). Uric acid and […] were measured using L-type Wako UA•F (Wako Pure Chemicals Industries, Ltd.) and L-type Creatine F (Wako Pure Chemicals Industries, Ltd.), respectively. Uric acid clearance was calculated from the uric acid concentrations in blood and urine and, similarly, creatinine clearance was calculated from the creatinine concentrations.

The target of the next experiment is T1, human URAT1 (Homo sapiens, UniProt Q96S37).
T1 construct: Full-length cDNA of human URAT1 (hURAT1)
T1 sequence (Q96S37 1-553): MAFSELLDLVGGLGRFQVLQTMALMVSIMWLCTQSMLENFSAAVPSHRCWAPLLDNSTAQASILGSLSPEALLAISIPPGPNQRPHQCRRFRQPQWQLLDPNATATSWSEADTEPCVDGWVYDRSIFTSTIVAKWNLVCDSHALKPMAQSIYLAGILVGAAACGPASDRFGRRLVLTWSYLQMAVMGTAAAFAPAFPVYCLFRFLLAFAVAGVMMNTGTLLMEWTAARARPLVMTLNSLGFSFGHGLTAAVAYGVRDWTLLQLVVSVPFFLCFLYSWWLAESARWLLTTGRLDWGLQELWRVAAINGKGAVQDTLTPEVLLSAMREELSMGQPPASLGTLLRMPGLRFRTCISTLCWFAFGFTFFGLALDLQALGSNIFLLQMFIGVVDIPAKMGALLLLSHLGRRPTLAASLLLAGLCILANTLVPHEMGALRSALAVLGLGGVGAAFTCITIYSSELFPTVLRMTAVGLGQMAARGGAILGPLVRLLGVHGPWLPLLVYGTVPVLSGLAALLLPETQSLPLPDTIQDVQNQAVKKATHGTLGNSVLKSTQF
In words: Test for inhibition of uric acid transport using human URAT1-expressing cells. Type of experiment: cell-based. As to conditions: HEK 293 cells expressing human URAT1; 14C-labeled uric acid 25 μM; uptake 37° C. for 5 min; read-out: IC50 (concentration of the compound at which the uric acid transport rate is inhibited by 50%). Here is the method:
Test for Inhibition of Uric Acid Transport Using Human URAT1-Expressing Cells
2-(5-chloropyridin-3-yl)-1-(2,5-dichlorobenzyl)-4-methyl-1H-imidazole-5-carboxylic acid was dissolved in DMSO (produced by Sigma) to a concentration of 20 mM and the concentration was subsequently adjusted to a value desired for use. Full-length cDNA of human URAT1 (hURAT1) (produced by OriGene Technologies, Inc., NCBI Reference Sequence: NM 144585) was subcloned into an expression vector, pCMV6-Kan/Neo (produced by OriGene Technologies, Inc.), and hURAT1 gene was transfected into human embryonic kidney-derived cells (HEK 293 cells) by liposome method using Lipofectamine 2000 (produced by Invitrogen Corporation), whereupon HEK 293 cells expressing human URAT1 gene were selected on the basis of Geneticin resistance. […]
After the medium was removed by aspiration from each well, the medium was replaced with a solution obtained by substituting NaCl in Hank's Balanced Salt Solution (HBSS) with Na gluconate (hereinafter, HBSS/Na-gluconate) and the cells were preincubated at 37° C. for about 10 minutes. […] The cell sample and a liquid scintillation liquid, ULTIMA GOLD (produced by PerkinElmer, Inc.) were mixed and the radioactivity was measured by a liquid scintillation counter (Beckman Coulter, Inc.). […]

Regarding `Cc1nc(-c2cncc(Cl)c2)n(Cc2cc(Cl)ccc2Cl)c1C(=O)O` [2-(5-chloropyridin-3-yl)-1-(2,5-dichlorobenzyl)-4-methyl-1H-imidazole-5-carboxylic acid], in the experiment with Cebus apella, the “activity to promote uric acid excretion (uric acid excretion rate)” value is reported as “excellent activity to promote uric acid excretion”. On human URAT1, the IC50 is at most 200 nM.

These data come from patent US20170144987A1, “NOVEL CRYSTALLINE POLYMORPHS OF PYRIDINE DERIVATIVE AND METHOD FOR PRODUCING THE SAME” (TEIJIN PHARMA LIMITED, priority 2014, published 2017).
